Structures can show the parent of a compound that is named as a salt.
Tests used:
[1] = target: HIV integrase (Human immunodeficiency virus type 1 group M subtype B, UniProt P04585); assay: biochemical
Experimental: The inhibitory activities against integrase were determined by the assay described below. • (1) Preparation of DNA Solutions
Before using the DNA solutions, complementary chains were annealed by slowly cooling after boiling.
Streptavidin, obtained from Vector Laboratories, was dissolved in 0.1 M carbonate buffer (composition: 90 mM Na2CO3, 10 mM NaHCO3) at concentration of 40 μg/ml. After coating each well of immunoplates (obtained from NUNC) with 50 μl of the above solution at 4° C. over night, each well was washed twice with PBS (composition: 13.7 mM NaCl, 0.27 mM KCl, 0.43 mM Na2HPO4, 0.14 mM KH2PO4) and blocked with 300 μl of 1% skim milk in PBS for 30 min. Additionally, each well was washed twice with PBS and added 50 μl of substrate DNA solution (2 pmol/μl). The immunoplates were kept at room temperature for 30 min while shaking. Then, each well was washed twice with PBS and once with the distilled water.
Subsequently, in the each well prepared above were added 51 μl of the reaction solution prepared from 12 μl of the buffer (composition: 150 mM MOPS (pH7.2), 75 mM MnCl2, 50 mM 2-mercaptoethanol, 25% glycerol, 500 μg/ml bovine serum albumin-fraction V), and 39 μl of the distilled water. Then 9 μl of an integrase solution (30 pmol) was added and mixed well. In the well of negative control (NC) was added 9 μl of the integrase dilution buffer (composition: 20 mM MOPS (pH7.2), 400 mM potassium glutamate, 1 mM EDTA, 0.1% NP-40, 20% glycerol, 1 mM DTT, 4M urea), and mixed well using a plate mixer.
The plates were incubated at 30° C. for 60 minutes. The reaction solution was removed and washed three times with 250 μl of washing buffer (composition: 150 mM MOPS (pH7.2), 50 mM 2-mercaptoethanol, 25% glycerol, 500 μg/ml bovine serum albumin-fraction V).
Then each well was added with 53 μl of reaction solution prepared from 12 μl of buffer (composition: 150 mM MOPS (pH7.2), 75 mM MgCl2, 50 mM 2-mercaptoethanol, 25% glycerol, 500 μg/ml bovine serum albumin-fraction V) and 41 μl of distilled water. Further, each well was added with 6 μl of DMSO solution of a compound to be tested, and the well of positive control (PC) was added with 6 μl of DMSO, and mixed well by a plate mixer. After incubating the plate for 30 minutes at 30° C., was added 1 μl of target DNA (5 pmol/μl), and mixed well by a plate mixer.
After incubation for 10 minutes at 30° C., each plate was washed twice with PBS after removal of the reaction solution. Then, 100 μl of ×2000 diluted solution of anti-digoxigenin antibody labeled with alkaline phosphatase (sheep Fab fragment: Boehringer) was added allowed to bind for 1 hour at 30° C., and washed twice with PBS containing 0.05% Tween20 and once with PBS in this sequence. Next, 150 μl of the Alkaline phosphatase coloring buffer (composition: 10 mM p-Nitrophenylphosphate (obtained from Vector Laboratories), 5 mM MgCl2, 100 mM NaCl, 100 mM Tris-HCl (pH 9.5)) was added and allowed to react for 2 hours at 30° C. Then the reaction was terminated by the addition of 50 μl of 1N NaOH solution. The optical density at 405 nm (OD405nm) of each well was measured and the inhibition rate (IC50) was determined by the following expression. The inhibition rate(%)=100[1−{(C abs.−NC abs.)/(PC abs.−NC abs.)}]
C abs.; the OD of the well of the compound
NC abs.: the OD of the negative control (NC)
PC abs.: the OD of the positive control (PC)

| Structure (SMILES) | melting point [°C] | IC50 [1] [nM] |
| --- | --- | --- |
| COCC=Cc1nc(C(=O)NCCN(C)C)c(O)c2ncc(Cc3ccc(F)cc3)cc12.Cl.O (hydrate or solvate) [Example B-20, 3-(4-fluorobenzyl)-8-hydroxy-5-(3-methoxypropenyl)[1,6]naphthyridine-7-carboxylic acid (2-dimethylaminoethyl)amide hydrochloride monohydrate] | 156 to 158 | – |
| COCCNC(=O)c1nc(C(=O)OC)c2cc(Cc3ccc(F)cc3)cnc2c1O [Example A-1, Methyl 3-(4-fluorobenzyl)-8-hydroxy-7-(2-methoxyethylcarbamoyl) [1,6]naphthyridine-5-carbonate] | 168 to 169 | 5.81 |
| COCCNC(=O)c1nc(NC(C)=O)c2cc(Cc3ccc(F)cc3)cnc2c1O [Example A-2, 5-acetylamino-3-(4-fluorobenzyl)-8-hydroxy[1,6]naphthyridine-7-carboxylic acid 2-methoxyethyl amide] | 216 to 217 | 46.1 |
| CNC(=O)C(=O)Nc1nc(C(=O)NCCOC)c(O)c2ncc(Cc3ccc(F)cc3)cc12 [Example A-3, N-[3-(4-fluorobenzyl)-8-hydroxy-7-(2-methoxyethylcarbamoyl)[1,6]naphthyridine-5-yl]-N′-methyloxal amide] | – | 41.7 |
| COCCNC(=O)c1nc(C(=O)OCCOC)c2cc(Cc3ccc(F)cc3)cnc2c1O [Example A-5, 3-(4-fluorobenzyl)-8-hydroxy-7-(2-methoxyethylcarbamoyl)[1,6]naphthyridine-5-carboxylic acid 2-methoxyethyl ester] | 139 to 141 | – |
| COCCNC(=O)c1nc(C(=O)OC2CCN(C(C)=O)CC2)c2cc(Cc3ccc(F)cc3)cnc2c1O [Example A-6, 3-(4-fluorobenzyl)-8-hydroxy-7-(2-methoxyethylcarbamoyl)[1,6]naphthyridine-5-carboxylic acid 1-acetylpiperidine-4-yl ester] | 92 to 94 | – |
| CCC(O)CNC(=O)c1nc(NC(=O)COC)c2cc(Cc3ccc(F)cc3)cnc2c1O (centres unmarked) [Example B-1, 3-(4-fluorobenzyl)-8-hydroxy-5-(2-methoxyacetylamino)-[1,6]naphthyridine-7-carboxylic acid (2-hydroxybutyl)amide] | – | 24.1 |
| COCCNC(=O)c1nc(C)c2cc(Cc3ccc(F)cc3)cnc2c1O [Example B-2, 3-(4-fluorobenzyl)-8-hydroxy-5-methyl[1,6]naphthyridine-7-carboxylic acid (2-methoxyethyl)amide] | 167 to 168 | 20 |
| COCCNC(=O)c1nc(C(C)O)c2cc(Cc3ccc(F)cc3)cnc2c1O (centres unmarked) [Example B-3, 3-(4-fluorobenzyl)-8-hydroxy-5-(1-hydroxyethyl)[1,6]naphthyridine-7-carboxylic acid (2-methoxyethyl) amide] | 179 | 17 |
| COCC=Cc1nc(C(=O)NCCOC)c(O)c2ncc(Cc3ccc(F)cc3)cc12 [Example B-4, 3-(4-fluorobenzyl)-8-hydroxy-5-(3-methoxypropenyl)[1,6]naphthyridine-7-carboxylic acid (2-methoxyethyl)amide] | 125 to 126 | 11.3 |
| COCCCNC(=O)c1nc(NC(=O)COC)c2cc(Cc3ccc(F)cc3)cnc2c1O [Example B-5, 3-(4-fluorobenzyl)-8-hydroxy-5-(2-methoxyacetylamino)[1,6]naphthyridine-7-carboxylic acid (3-methoxypropyl) amide] | 159 to 160 | 39.4 |
| COCC(=O)Nc1nc(C(=O)NCCN(C(C)C)C(C)C)c(O)c2ncc(Cc3ccc(F)cc3)cc12 [Example B-6, 3-(4-fluorobenzyl)-8-hydroxy-5-(2-methoxyacetylamino)[1,6]naphthyridine-7-carboxylic acid (2-diisopropylaminoethyl)amide] | 69 to 70 | 141 |
| COCC(=O)Nc1nc(C(=O)NCCOC(C)C)c(O)c2ncc(Cc3ccc(F)cc3)cc12 [Example B-7, 3-(4-fluorobenzyl)-8-hydroxy-5-(2-methoxyacetylamino)[1,6]naphthyridine-7-carboxylic acid (2-isopropoxyethyl)amide] | 149 to 150 | 31.9 |
| COCC(=O)Nc1nc(C(=O)NCCC#N)c(O)c2ncc(Cc3ccc(F)cc3)cc12 [Example B-8, 3-(4-fluorobenzyl)-8-hydroxy-5-(2-methoxyacetylamino)[1,6]naphthyridine-7-carboxylic acid (2-cyanoethyl)amide] | 173 to 175 | 27.4 |
| COCC(=O)Nc1nc(C(=O)NCCN(C)C)c(O)c2ncc(Cc3ccc(F)cc3)cc12 [Example B-9, 3-(4-fluorobenzyl)-8-hydroxy-5-(2-methoxyacetylamino)[1,6]naphthyridine-7-carboxylic acid (2-dimethylaminoethyl)amide] | – | 37.3 |
| COCC(=O)Nc1nc(C(=O)NC(C)CO)c(O)c2ncc(Cc3ccc(F)cc3)cc12 (centres unmarked) [Example B-10, 3-(4-fluorobenzyl)-8-hydroxy-5-(2-methoxyacetylamino)[1,6]naphthyridine-7-carboxylic acid (2-hydroxy-1-methylethyl)amide] | – | 49.7 |

| Structure (SMILES) | melting point [°C] | IC50 [1] [nM] |
| --- | --- | --- |
| COCC(=O)Nc1nc(C(=O)NC(C)C(=O)OC)c(O)c2ncc(Cc3ccc(F)cc3)cc12 (centres unmarked) [Example B-11, Methyl 2-{[3-(4-fluorobenzyl)-8-hydroxy-5-(2-methoxyacetylamino)[1,6]naphthyridine-7-carbonyl]amino}propionate] | 181 to 182 | 51 |
| CCN(CC)CCCNC(=O)c1nc(NC(=O)COC)c2cc(Cc3ccc(F)cc3)cnc2c1O [Example B-12, 3-(4-fluorobenzyl)-8-hydroxy-5-(2-methoxyacetylamino)[1,6]naphthyridine-7-carboxylic acid (3-diethylaminopropyl)amide] | – | 159 |
| COCC(=O)Nc1nc(C(=O)NCCCN(C)C)c(O)c2ncc(Cc3ccc(F)cc3)cc12 [Example B-13, 3-(4-fluorobenzyl)-8-hydroxy-5-(2-methoxyacetylamino)[1,6]naphthyridine-7-carboxylic acid (3-dimethylaminopropyl)amide] | – | 70.3 |
| CCOCCNC(=O)c1nc(NC(=O)COC)c2cc(Cc3ccc(F)cc3)cnc2c1O [Example B-14, 3-(4-fluorobenzyl)-8-hydroxy-5-(2-methoxyacetylamino)[1,6]naphthyridine-7-carboxylic acid (2-ethoxyethyl)amide] | 175 to 177 | 48.2 |
| COCC(=O)Nc1nc(C(=O)NCCC(=O)OC)c(O)c2ncc(Cc3ccc(F)cc3)cc12 [Example B-15, Methyl 3-([3-(4-fluorobenzyl)-8-hydroxy-5-(2-methoxyacetylamino)[1,6]naphthyridine-7-carbonyl]amino)propionate] | 168 to 170 | 44.6 |
| COCCN(C)C(=O)c1nc(NC(=O)COC)c2cc(Cc3ccc(F)cc3)cnc2c1O [Example B-16, 3-(4-fluorobenzyl)-8-hydroxy-5-(2-methoxyacetylamino)[1,6]naphthyridine-7-carboxylic acid (2-methoxyethyl)methylamide] | 66 to 68 | 57 |
| COCC=Cc1nc(C(=O)NCCN(C)C)c(O)c2ncc(Cc3ccc(F)cc3)cc12 [Example B-20, 3-(4-fluorobenzyl)-8-hydroxy-5-(3-methoxypropenyl)[1,6]naphthyridine-7-carboxylic acid (2-dimethylaminoethyl)amide hydrochloride monohydrate] | – | 34.5 |
| CCC(O)CNC(=O)c1nc(C(=O)NC(C)(C)C)c2cc(Cc3ccc(F)cc3)cnc2c1O (centres unmarked) [Example B-21, 3-(4-fluorobenzyl)-8-hydroxy[1,6]naphthyridine-5,7-dicarboxylic acid 5-tert-butylamide 7-[(2-hydroxybutyl)amide]] | – | 17.9 |
| CCC(O)CNC(=O)c1nc(C(=O)NCCOC)c2cc(Cc3ccc(F)cc3)cnc2c1O (centres unmarked) [Example B-22, 3-(4-fluorobenzyl)-8-hydroxy[1,6]naphthyridine-5,7-dicarboxylic acid 7-[(2-hydroxybutyl)amide] 5-[(2-methoxyethyl)amide]] | – | 36.1 |
| CCC(O)CNC(=O)c1nc(C(=O)NCCCN2CCCC2=O)c2cc(Cc3ccc(F)cc3)cnc2c1O (centres unmarked) [Example B-23, 3-(4-fluorobenzyl)-8-hydroxy[1,6]naphthyridine-5,7-dicarboxylic acid 7-[(2-hydroxybutyl)amide]5-{[3-(2-oxopyrrolidine-1-yl)propyl]amide}] | – | 35.3 |
| CCC(O)CNC(=O)c1nc(C(=O)NCC2CCCO2)c2cc(Cc3ccc(F)cc3)cnc2c1O (centres unmarked) [Example B-24, 3-(4-fluorobenzyl)-8-hydroxy[1,6]naphthyridine-5,7-dicarboxylic acid 7-[(2-hydroxybutyl)amide] 5-[(tetrahydrofuran-2-ylmethyl)amide]] | – | 30.2 |
| COCCNC(=O)C(=O)Nc1nc(C(=O)NN(C)C)c(O)c2ncc(Cc3ccc(F)cc3)cc12 [Example B-25, N-[7-(N′,N′-dimethylhydrazinocarbonyl)-3-(4-fluorobenzyl)-8-hydroxy[1,6]naphthyridine-5-yl]-N′-(2-methoxyethyl)oxalamide] | 167 to 169 | – |
| CN(C)NC(=O)c1nc(NC(=O)C(=O)N(C)C)c2cc(Cc3ccc(F)cc3)cnc2c1O [Example B-26, N-[7-(N′,dimethylhydrazinocarbonyl)-3-(4-fluorobenzyl)-8-hydroxy[1,6]naphthyridine-5-yl]-N′,N′-dimethyl oxalamide] | 125 to 128 | – |
| CNC(=O)C(=O)Nc1nc(C(=O)NCCO)c(O)c2ncc(Cc3ccc(F)cc3)cc12 [Example B-27, N-[3-(4-fluorobenzyl)-8-hydroxy-7-(2-hydroxyethylcarbamoyl)[1,6]naphthyridine-5-yl]-N′-methyl oxalamide] | 136 to 137 | – |
| CNC(=O)C(=O)Nc1nc(C(=O)NC(C)CO)c(O)c2ncc(Cc3ccc(F)cc3)cc12 (centres unmarked) [Example B-28, N-[3-(4-fluorobenzyl)-8-hydroxy-7-(2-hydroxy-1-methylethylcarbamoyl)[1,6]naphthyridine-5-yl]-N′-methyl oxalamide] | 131 to 133 | – |

Reference: US7919623B2, “Naphthyridine derivatives having inhibitory activity against HIV integrase” (Shionogi & Co., Ltd., priority 2004, dated 2011)
